Laboratory results reported in patent US20250152556A1, “ETRASIMOD FOR USE IN TREATING S1P1 RECEPTOR-ASSOCIATED DISORDERS IN COMBINATION WITH HORMONE TREATMENT” (Arena Pharmaceuticals, Inc., priority 2022, published 2025).
Blank lines part the entries; values can stand above or below the compound they belong to.

Tests used:
[1] = cited from earlier work
ovarian activity = test: Phase 1 study: PD markers of ovarian activity (FSH, LH, estradiol, progesterone, SHBG, TVUS/Hoogland score); assay type: in vivo, human; conditions: Study Drug 2 mg qd with OC
Source text: (§1) Secondary objectives of the study were: • To assess the concentrations of follicle stimulating hormone (FSH), luteinizing hormone (LH), estradiol, and progesterone during and after dosing with the monophasic OC alone and when co-administered with Study Drug in healthy premenopausal female subjects. • To evaluate transvaginal ultrasound (TVUS) and Hoogland scores on Days 1 and 11±1 in Period 1 and Period 2 in healthy premenopausal female subjects. • To evaluate sex hormone binding globulin (SHBG) concentrations on Days 1 and 21 in Period 1 and Period 2 in healthy premenopausal female subjects. • To evaluate the steady-state PK of Study Drug when co-administered with the monophasic OC in healthy premenopausal female subjects. • To assess complete blood count (CBC) including differential, absolute lymphocyte count lowering from baseline, and platelet count upon administration of monophasic OC alone and when co-administered with Study Drug in healthy premenopausal female subjects. • To evaluate the safety and tolerability of Study Drug when co-administered with the monophasic OC in healthy premenopausal female subjects.
On Day 1, baseline CBC, FSH, LH, estradiol, progesterone, TVUS, and SHBG were obtained, and then subjects received OC dosing. The TVUS were performed on Day −1 or Day 1. The OC PK was done on Days 21 to 22. […]

[2] = Phase 1 study: steady-state PK of Study Drug co-administered with OC; assay type: in vivo, human; conditions: Day 49, Period 2, Study Drug 2 mg qd + OC; compared with Study Drug given alone in previous studies
Source text: as §1
All subjects were co-administered Study Drug 2 mg qd with OC for 21 days (Days 29 to 49; test treatment), followed by a 7-day dose-free period (Days 50 to 56). On Days 49 to 50, subjects underwent assessments for PK of Study Drug and OC. […]

lymphocyte counts = test: Phase 1 study: lymphocyte counts (CBC); assay type: in vivo, human
Source text: as §1
Subjects were administered 2 mg Study Drug, specifically, the L-arginine salt of Compound 1, i.e., Compound 2, qd on Days 23 to 28. […]

[3] = Phase 1 study: safety and tolerability (AEs, 12-lead ECG, Holter, laboratory, vital signs); assay type: in vivo, human
Procedure: Subjects were administered 2 mg Study Drug, specifically, the L-arginine salt of Compound 1, i.e., Compound 2, qd on Days 23 to 28. Subjects were fitted with a Holter monitor and 24-hour continuous electrocardiogram (ECG) recording was performed starting before the Study Drug dose on Day 23 of Period 1 until Day 24 of Period 1.
All subjects were co-administered Study Drug 2 mg qd with OC for 21 days (Days 29 to 49; test treatment), followed by a 7-day dose-free period (Days 50 to 56). On Days 49 to 50, subjects underwent assessments for PK of Study Drug and OC. Further PD assessments and safety evaluations were performed as described in the schedules of assessments and procedures. Subjects were fitted with a Holter monitor and 24-hour continuous ECG recording was performed starting before the Study Drug dose on Day 49 of Period 2 until Day 50 of Period 2.
Subject safety and tolerability were monitored during the study using standard measures, including adverse event (AE) monitoring, orthostatic vital signs, 12-lead ECGs, continuous ECG recordings (Holter), clinical laboratory evaluations, physical examinations, and concomitant medication usage.
• Evaluations of AEs, orthostatic vital signs, 12-lead ECGs, continuous ECG recording (Holter), clinical laboratory evaluations, physical examinations, concomitant medications

[4] = set-up: species or system human; conditions: in vivo
Procedure: A phase 1, open-label, repeat-dose, two-way, single-sequence study was conducted to evaluate the effect of Compound 1, or a pharmaceutically acceptable salt, hydrate, or solvate thereof, (“Study Drug”) on the pharmacokinetics and pharmacodynamics of a monophasic oral contraceptive (OC) in healthy premenopausal female subjects.
The primary objective of the study was to evaluate the pharmacokinetics (PK) of a monophasic OC (30 μg ethinylestradiol [EE] and 150 μg levonorgestrel [LVG]) alone and when co-administered with repeated doses of Study Drug in healthy premenopausal female subjects.
All subjects received monophasic OC once daily (qd) for 21 days (Days 1 to 21; reference treatment) followed by a 7-day OC dose-free period (Days 22 to 28). […]
Blood samples for plasma PK evaluation of EE, LVG, and Study Drug were collected. The following PK parameters were determined for EE, LVG, and/or Study Drug and, if warranted, metabolites thereof. • Cmax,ss maximum plasma concentration at steady-state • Cmin,ss plasma concentration at 24-hours postdose at steady-state • Tmax,ss time to Cmax at steady-state • AUCtau,ss area under the plasma concentration-time curve (AUC) during the dosing interval (tau) at steady-state • CLSS/F Apparent plasma clearance of drug after extravascular administration at steady-state

[5] = after the first dose (Day 23), 2 mg
[6] = repeat dosing at steady-state (Day 49), 2 mg qd

SMILES: O=C(O)C[C@H]1CCc2c1[nH]c1ccc(OCc3ccc(C4CCCC4)c(C(F)(F)F)c3)cc21 [Compound 1, (R)-2-(7-(4-cyclopentyl-3-(trifluoromethyl)benzyloxy)-1,2,3,4-tetrahydrocyclopenta[b]indol-3-yl)acetic acid]
endoscopic and symptomatic improvements versus placebo ([1]; Phase 2, ulcerative colitis patients, 2 mg QD for 12 weeks): clinically meaningful and statistically significant | safety and tolerability in adult subjects ([1]; approximately 281 adult subjects, various doses, Phase 1 single doses up to 5 mg, repeated up to 4 mg QD): safe and well-tolerated | duration of sustained beneficial effects ([1]; open-label extension study): up to 46 weeks

SMILES: N=C(N)NCCC[C@H](N)C(=O)O.O=C(O)C[C@H]1CCc2c1[nH]c1ccc(OCc3ccc(C4CCCC4)c(C(F)(F)F)c3)cc21 [Compound 2, 1:1 salt of (R)-2-(7-(4-cyclopentyl-3-(trifluoromethyl)benzyloxy)-1,2,3,4-tetrahydrocyclopenta[b]indol-3-yl)acetic acid with L-arginine]
impact of Study Drug on PD performance of the OC (FSH, LH, estradiol, progesterone, SHBG, TVUS/Hoogland score) (ovarian activity): no apparent clinically relevant impact | Study Drug steady-state plasma exposure measures (Cmax,ss, Cmin,ss, AUCtau,ss) [2]: generally consistent with previous study findings | mean lymphocyte counts relative to mean baseline (Day 23) after discontinuation (lymphocyte counts; Day 56, 7 days after discontinuation of study treatment): 94% | mean lymphocyte count reduction from mean baseline (Day 23) (lymphocyte counts; Period 2, Study Drug 2 mg qd + OC, Day 49): −56.7% | clinically significant abnormalities of 12-lead ECG parameters including PR interval and QT interval ([3]; Days 23 or 49): No subject had an ECG with clinically significant abnormalities | HR lowering effects, continuous Holter ECG recording [3, 5]: typically mild | HR lowering effects, safety 12-lead ECG [3, 5]: typically mild | safety or tolerability events of concern ([3]; conclusion, coadministration with OC): No safety or tolerability events of concern | HR lowering effects, continuous Holter ECG recording [3, 6]: less impacted | HR lowering effects, safety 12-lead ECG [3, 6]: less impacted

change in peak (Cmax,ss) and total (AUCtau,ss) exposure measures when OC coadministered with ETR vs OC alone [4]: minor-to-moderate increases
SMILES: C#C[C@]1(O)CC[C@H]2[C@@H]3CCc4cc(O)ccc4[C@H]3CC[C@@]21C [Ethinylestradiol (EE), ethinylestradiol]

change in peak (Cmax,ss) and total (AUCtau,ss) exposure measures when OC coadministered with ETR vs OC alone [4]: minor-to-moderate increases
SMILES: C#C[C@]1(O)CC[C@H]2[C@@H]3CCC4=CC(=O)CC[C@@H]4[C@H]3CC[C@@]21CC [Levonorgestrel (LVG), levonorgestrel]
